Source: patent publication US12084444B2, “Spiro-lactam NMDA modulators and methods of using same” (Tenacia Biotechnology (Hong Kong) Co., Limited, priority 2016, dated 2024)

Experiments:
Sprague Dawley rats = experiment: Bennett model of mechanical analgesia (sciatic nerve chronic constriction injury); assay type: in vivo
Procedure: The Bennett model of mechanical analgesia is used to assess the analgesic effects of compounds as measured by paw withdrawal threshold. Bennett G J, Xie Y K, “A peripheral mononeuropathy in rat that produces disorders of pain sensation like those seen in man,” Pain 33:87-107, 1988. […] Vehicle animals receive the surgery and then receive vehicle rather than test compound. Animals were tested 1 hr, 24 h and 1 wk post-test compound or vehicle administration.
Male 2-3 month old Sprague Dawley rats were used. Harlan was the supplier for all studies. Rats were housed in Lucite cages with aspen wood chip bedding, maintained on a 12:12 light:dark cycle (lights on at 5 AM), and given ad libitum access to Purina lab chow (USA) and tap water throughout the study.
Rats were anesthetized using inhaled isoflurane (2.5%). Sciatic nerve chronic constriction nerve injury surgery was performed as previously described (Bennett and Xie, 1988). An incision (˜1.5 cm in length) was made with a scalpel blade dorsally through skin on the right hind limb, parallel and posterior to femur. Using a small pointed hemostat, the biceps femoris and gluteus superficialis muscles were separated. Using curved blunt forceps, the common sciatic nerve was isolated and exposed. For the mechanical analgesia studies, the whole sciatic nerve was ligated. Using hemostats/forceps and chromic gut (5-0), the nerve was loosely ligated with a square knot; 3 ligatures, 1 mm apart were placed on the nerve. […] Testing occurred approximately 2 weeks post-surgery.
During testing, rats were acclimated to the surface of a suspended wire mesh grid (1 cm×1 cm, with the wire being 0.3 cm in diameter) for 15-20 min. Starting from the smallest, each Von Frey filament was pressed perpendicularly to the plantar surface of the affected (ipsilateral) hind paw until slightly bent and then held for 6 second. If an obvious hind paw withdrawal or a flinching behavior immediately after the withdrawal of the filament was not observed, the next larger filament was used in the same manner. In case of a response, a lower filament was used. This was repeated until six responses were collected.
For all studies, animals were baselined prior to study start to test for allodynia (defined as a paw withdrawal threshold under 5). A subset of animals was tested with gabapentin (150 mg/kg, PO) to ensure at least 50% analgesia. Once it was confirmed animals were ready for study initiation, animals were balanced across groups. All study investigators were blind to treatment conditions. Animals were dosed with 0.1, 1, 10, or 30 mg/kg of test compound via oral gavage (PO), control sets of animals were dosed with gabapentin (150 mg/kg, PO) or vehicle (0.5% Na-CMC in 0.9% sterile saline, PO). Testing occurred 1 h post-dosing with animals retested 24 hrs and 1 week post-dosing. The percent analgesia calculations for each animal were made using the following equation: % analgesia=[(log(x)−y)/((log (z)−y)]*100, where x=the paw withdrawal threshold for the drug-treated animal in grams, y=the average of the log(x) values for the vehicle treated group, and z=the paw withdrawal threshold for naïve animals in grams (historical value of 15 used). The results for Compound AA-2, where the percentage of analgesia is measured at 1 hour, 24 hours, and 1 week after compound administration are as follows: for 0.1 mg/kg dose: 22.3% at 1 h, 1.6% at 24 h, and 2.3% at 1 wk; for 1 mg/kg dose: 19.2% at 1 h, 10.7% at 24 h, and 11.0% at 1 wk; for 10 mg/kg dose: 38.1% at 1 h, 24.3% at 24 h, and 41.4% at 1 wk; and for 30 mg/kg dose: 24.4% at 1 h, 8.7% at 24 h, and 34.5% at 1 wk.

IV pharmacokinetics = experiment: IV pharmacokinetics; design: species or system Sprague Dawley rats; details: Sprague Dawley, in vivo, rat, 2 mg/kg, normal saline
Procedure: Sprague Dawley rats were dosed intravenously using a normal saline formulation containing 2 mg/kg of the compounds identified in the below table. The table below summarizes the results of the IV pharmacokinetics.

rats = experiment: Positive emotional learning (PEL) test, 50-kHz ultrasonic vocalizations; assay type: in vivo, rat; details: dose range 0.001-1 mg/kg, orally; tested one hour after administration
Procedure: Experiments were conducted as described in Burgdorf et al., “The effect of selective breeding for differential rates of 50-kHz ultrasonic vocalizations on emotional behavior in rats,” Devel. Psychobiol., 51:34-46 (2009). Rat 50-kHz ultrasonic vocalization (hedonic USVs) is a validated model for the study of positive affective state and is best elicited by rough-and-tumble play.
The PEL assay measures the acquisition of positive (hedonic) 50-kHz ultrasonic vocalizations (USVs) to a social stimulus, heterospecific rough and tumble play stimulation. Heterospecific rough-and-tumble play stimulation was administered by the experimenter's right hand. […] High frequency ultrasonic vocalizations (USVs) were recorded and analyzed by sonogram with Avasoft SASlab Pro (Germany) as previously described by Burgdorf et al., “Positive emotional learning is regulated in the medial prefrontal cortex by GluN2B-containing NMDA receptors,” Neuroscience, 192:515-523 (2011). Frequency modulated 50-kHz USVs that occurred during each of the no-stimulation periods were quantified to measure PEL. […] Positive emotional learning was measured during the conditioned stimulus (CS) trials preceding the tickle unconditioned stimulus (UCS) trials. […]

- AUC(0-t) (IV pharmacokinetics): 3370 ng·h/mL
- C0 (IV pharmacokinetics): 1990 ng/mL
- clearance (IV pharmacokinetics): 9.82 mL/min/kg
- half-life (IV pharmacokinetics): 1.25 h
- Vd (IV pharmacokinetics; read-out: Vss): 0.54 L/kg
SMILES: COc1ccc(CN2C[C@@]3(CCNC(=O)C3)C2=O)cc1 [Compound AA-2, 2-(4-methoxybenzyl)-2,7-diazaspiro[3.5]nonane-1,6-dione]
- % analgesia (Sprague Dawley rats; 0.1 mg/kg PO, 1 wk): 2.3%
- % analgesia (Sprague Dawley rats; 0.1 mg/kg PO, 1 h): 22.3%
- % analgesia (Sprague Dawley rats; 0.1 mg/kg PO, 24 h): 1.6%
- % analgesia (Sprague Dawley rats; 1 mg/kg PO, 1 wk): 11.0%
- % analgesia (Sprague Dawley rats; 1 mg/kg PO, 1 h): 19.2%
- % analgesia (Sprague Dawley rats; 1 mg/kg PO, 24 h): 10.7%
- % analgesia (Sprague Dawley rats; 10 mg/kg PO, 1 wk): 41.4%
- % analgesia (Sprague Dawley rats; 10 mg/kg PO, 1 h): 38.1%
- % analgesia (Sprague Dawley rats; 10 mg/kg PO, 24 h): 24.3%
- % analgesia (Sprague Dawley rats; 30 mg/kg PO, 1 wk): 34.5%
- % analgesia (Sprague Dawley rats; 30 mg/kg PO, 1 h): 24.4%
- % analgesia (Sprague Dawley rats; 30 mg/kg PO, 24 h): 8.7%
- maximum effect, mean number of 50 kHz USVs per 15 seconds (rats): 10.1-20 50 kHz USVs per 15 seconds
